pIC50: −log10 of the molar value.

This passage reports Stability, IC50 and Activity results from ChEMBL document CHEMBL1155481, “N-Hydroxybenzimidazole inhibitors of ExsA MAR transcription factor in Pseudomonas aeruginosa: In vitro anti-virulence activity and metabolic stability” (Bioorg Med Chem Lett, 2010).

The subject of one data set is Liver microsomes. The experiment in a line: Metabolic stability in human liver microsome. The class given is ADME.
For `CC(=O)c1ccc(/C=C/C(=O)Nc2ccc(-c3nc4ccc([N+](=O)[O-])cc4n3O)cc2)cc1`, the Stability entry was “Stable”.
As to `CC(=O)c1ccc(/C=C/C(=O)Nc2ccc(-c3nc4ccc(C#N)cc4n3O)cc2)cc1`, the Stability result is listed as “Stable”.
In the case of `O=C(/C=C/c1ccc(F)cc1)Nc1ccc(-c2nc3ccc([N+](=O)[O-])cc3n2O)cc1`, the Stability entry is listed as “Stable”.

A further data set has as its target T1, HTH-type transcriptional regulator ExsA (Pseudomonas aeruginosa (strain ATCC 15692 / PAO1 / 1C / PRS 101 / LMG12228), UniProt P26993).
T1 sequence (P26993 whole entry): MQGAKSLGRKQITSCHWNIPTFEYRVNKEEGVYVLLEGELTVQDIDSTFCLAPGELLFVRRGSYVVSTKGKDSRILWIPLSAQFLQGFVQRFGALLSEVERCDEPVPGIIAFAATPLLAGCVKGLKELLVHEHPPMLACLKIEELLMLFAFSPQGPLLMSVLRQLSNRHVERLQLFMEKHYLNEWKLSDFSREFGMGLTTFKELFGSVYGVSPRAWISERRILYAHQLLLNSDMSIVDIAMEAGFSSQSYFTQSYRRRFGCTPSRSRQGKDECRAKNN
Put plainly: Inhibition of Pseudomonas aeruginosa 388 ExsA DNA binding activity.
`CC(=O)c1ccc(/C=C/C(=O)Nc2ccc(-c3nc4ccc([N+](=O)[O-])cc4n3O)cc2)cn1`: the pIC50 was 5.12.
For the compound `CC(=O)c1ccc(/C=C/C(=O)Nc2ccc(-c3nc4ccc([N+](=O)[O-])cc4n3O)cc2)cc1`, the pIC50 is 5.52.
`CC(=O)c1ccc(/C=C/C(=O)Nc2ccc(-c3nc4ccc(C#N)cc4n3O)cc2)cc1`: the pIC50 was 4.89. This pIC50 lies 0.63 log units lower than the previous one.

The target of a further data set is T1, HTH-type transcriptional regulator ExsA. Put plainly: Inhibition of Pseudomonas aeruginosa PAO1 ExsA DNA binding activity.
On to `CSc1ccc(/C=C/C(=O)Nc2ccc(-c3nc4ccc([N+](=O)[O-])cc4n3O)cc2)cc1`, for which the pIC50 was 4.98.
Same read-out and setting: the value for `CSc1ccc(/C=C/C(=O)Nc2ccc(-c3nc4ccc([N+](=O)[O-])cc4n3O)cc2)cn1` was 5.16; that for `CC(=O)c1ccc(/C=C/C(=O)Nc2ccc(-c3nc4c(CC(=O)O)cc([N+](=O)[O-])cc4n3O)cc2)cc1` was 5.43; that for `CSc1ccc(/C=C/C(=O)Nc2ccc(-c3nc4ccc(C#N)cc4n3O)cc2)cn1` was 5.46.
`CC(=O)c1ccc(/C=C/C(=O)N(CC(N)=O)c2ccc(-c3nc4ccc([N+](=O)[O-])cc4n3O)cc2)cc1`: the pIC50 is below 4.32.
Consider `CC(=O)c1ccc(/C=C/C(=O)N(CC(N)=O)c2ccc(-c3nc4ccc(C#N)cc4n3O)cc2)cc1`, for which the pIC50 is below 4.31.
In turn, `CC(=O)c1ccc(/C=C/C(=O)N(CC(=O)O)c2ccc(-c3nc4ccc(C#N)cc4n3O)cc2)cc1` had a pIC50 below 4.29.
`CC(=O)c1ccc(/C=C/C(=O)Nc2ccc(-c3nc4c(CC(=O)O)cc([N+](=O)[O-])cc4n3O)cc2)cn1` showed a pIC50 of 5.34.
Take `O=C(/C=C/c1ccc(C(O)(O)C(F)(F)F)cc1)Nc1ccc(-c2nc3ccc([N+](=O)[O-])cc3n2O)cc1`: the pIC50 is below 4.00.
Compound `CSc1ccc(/C=C/C(=O)Nc2ccc(-c3nc4ccc(C#N)cc4n3O)cc2)cc1` had a pIC50 of 5.14.
`O=C(/C=C/c1ccc(C(F)(F)F)nc1)Nc1ccc(-c2nc3ccc([N+](=O)[O-])cc3n2O)cc1` showed a pIC50 of 5.17.
Turning to `O=C(/C=C/c1ccc(-n2ccnc2)nc1)Nc1ccc(-c2nc3ccc([N+](=O)[O-])cc3n2O)cc1`, the pIC50 is 4.51. This pIC50 lies 0.66 log units lower than the previous one.
Still for that read-out and setting: the value for `CN(C)c1ccc(/C=C/C(=O)Nc2ccc(-c3nc4ccc([N+](=O)[O-])cc4n3O)cc2)cn1` was below 4.00.

Tested on in another data set: not listed separately
The experiment in a line: Chemical stability of the compound. The class given is physicochemical.
Take `CSc1ccc(/C=C/C(=O)Nc2ccc(-c3nc4ccc([N+](=O)[O-])cc4n3O)cc2)cc1`: the Stability result is on record as “Stable”.
The same measure, in the same setting: the value for `CSc1ccc(/C=C/C(=O)Nc2ccc(-c3nc4ccc([N+](=O)[O-])cc4n3O)cc2)cn1` was “Stable”.
On to `CC(=O)c1ccc(/C=C/C(=O)Nc2ccc(-c3nc4c(CC(=O)O)cc([N+](=O)[O-])cc4n3O)cc2)cc1`, for which the Stability entry is “Stable”.
Turning to `CSc1ccc(/C=C/C(=O)Nc2ccc(-c3nc4ccc(C#N)cc4n3O)cc2)cn1`, the Stability result is on record as “Stable”.
On the same count and under the same terms, with `CC(=O)c1ccc(/C=C/C(=O)N(CC(N)=O)c2ccc(-c3nc4ccc([N+](=O)[O-])cc4n3O)cc2)cc1` the entry was “Stable”.
`CC(=O)c1ccc(/C=C/C(=O)N(CC(N)=O)c2ccc(-c3nc4ccc(C#N)cc4n3O)cc2)cc1`: the Stability result is given as “Stable”.
For `CC(=O)c1ccc(/C=C/C(=O)N(CC(=O)O)c2ccc(-c3nc4ccc(C#N)cc4n3O)cc2)cc1`, the Stability result is “Stable”.
With `CC(=O)c1ccc(/C=C/C(=O)Nc2ccc(-c3nc4c(CC(=O)O)cc([N+](=O)[O-])cc4n3O)cc2)cn1`, the Stability result is on record as “Stable”.
With `O=C(/C=C/c1ccc(C(O)(O)C(F)(F)F)cc1)Nc1ccc(-c2nc3ccc([N+](=O)[O-])cc3n2O)cc1`, the Stability result is “Stable”.
As to `CSc1ccc(/C=C/C(=O)Nc2ccc(-c3nc4ccc(C#N)cc4n3O)cc2)cc1`, the Stability result is listed as “Stable”.
As for `CC(=O)c1ccc(/C=C/C(=O)Nc2ccc(-c3nc4ccc([N+](=O)[O-])cc4n3O)cc2)cn1`, the Stability entry is “Stable”.
Turning to `CC(=O)c1ccc(/C=C/C(=O)Nc2ccc(-c3nc4ccc([N+](=O)[O-])cc4n3O)cc2)cc1`, the Stability entry is recorded as “Stable”.
With `CC(=O)c1ccc(/C=C/C(=O)Nc2ccc(-c3nc4ccc(C#N)cc4n3O)cc2)cc1`, the Stability result is given as “Stable”.
On the same count and under the same terms, with `O=C(/C=C/c1ccc(C(F)(F)F)nc1)Nc1ccc(-c2nc3ccc([N+](=O)[O-])cc3n2O)cc1` the entry was “Stable”; with `O=C(/C=C/c1ccc(-n2ccnc2)nc1)Nc1ccc(-c2nc3ccc([N+](=O)[O-])cc3n2O)cc1`, “Stable”; with `CN(C)c1ccc(/C=C/C(=O)Nc2ccc(-c3nc4ccc([N+](=O)[O-])cc4n3O)cc2)cn1`, “Stable”.

The subject of another data set is J774.A1. The experiment in a line: Cytoprotective activity against Pseudomonas aeruginosa-induced cytotoxicity in mouse J774A1 cells assessed as LDH release at 100 uM. The class given is functional.
Take `CSc1ccc(/C=C/C(=O)Nc2ccc(-c3nc4ccc([N+](=O)[O-])cc4n3O)cc2)cc1`: the Activity is given as above 100%.
Take `CSc1ccc(/C=C/C(=O)Nc2ccc(-c3nc4ccc([N+](=O)[O-])cc4n3O)cc2)cn1`: the Activity is listed as 52.7%.
Consider `CC(=O)c1ccc(/C=C/C(=O)Nc2ccc(-c3nc4c(CC(=O)O)cc([N+](=O)[O-])cc4n3O)cc2)cc1`, for which the Activity stood at 65.4%.
For `CSc1ccc(/C=C/C(=O)Nc2ccc(-c3nc4ccc(C#N)cc4n3O)cc2)cn1`, the Activity amounted to 46.6%.
The same measure, in the same setting: the value for `CC(=O)c1ccc(/C=C/C(=O)Nc2ccc(-c3nc4c(CC(=O)O)cc([N+](=O)[O-])cc4n3O)cc2)cn1` was 33.1%; that for `CSc1ccc(/C=C/C(=O)Nc2ccc(-c3nc4ccc(C#N)cc4n3O)cc2)cc1` was above 100%; that for `CC(=O)c1ccc(/C=C/C(=O)Nc2ccc(-c3nc4ccc([N+](=O)[O-])cc4n3O)cc2)cn1` was 12.1%.
With `CC(=O)c1ccc(/C=C/C(=O)Nc2ccc(-c3nc4ccc([N+](=O)[O-])cc4n3O)cc2)cc1`, the Activity is 22.4%.
On the same count and under the same terms, the value for `CC(=O)c1ccc(/C=C/C(=O)Nc2ccc(-c3nc4ccc(C#N)cc4n3O)cc2)cc1` was 19.2%; that for `O=C(/C=C/c1ccc(C(F)(F)F)nc1)Nc1ccc(-c2nc3ccc([N+](=O)[O-])cc3n2O)cc1` was 78.5%.
